The results in this text go back to US10342796B2, “Acrylanilide derivative, preparation method, and applications thereof in pharmacy” (Ancureall Pharmaceutical (Shanghai) Co., Ltd., priority 2015, dated 2019).

As a reminder, the GI50 is the concentration at which growth is held to half of that of the control.

For assay [1], the system named is HCT116 (EGFR wt, Kras G13D). As to the kind of experiment: Growth inhibition GI50 in vitro (CCK8/MTT, 72 h). In kind it is cell-based. Conditions: Homo sapiens, HCT-116. How it is done: (§1) The suspension cells were collected by centrifugation. The supernatant was discard and the cell pellet was resuspended and counted. Different cell concentrations (5˜10×10^4 cells/mL) were prepared according to the growth cycle of each cell line and then seeded on a 96-well plate (Corning), 100 μL/well. The cells were incubated over night at 37° C., 5% CO2. The compounds were added to the cells on the second day with 2 wells in parallel. The final concentration of organic solvent shall not exceed 1%. The cells were continually incubated for 72 h, and then subjected to MTT assay.
(§2) The present compounds and the reference compounds were dissolved with DMSO (Sigma), respectively. […] The storage concentration of compounds was 10 mM and kept at −20° C. They were diluted by 2 times or 10 times with serial dilution before using.
(§3) Dojindo CCK8 reagent kit was used as MTT assay. […] FC meter was used as microplate reader.
(§4) Adherent cell culture medium was discard and immediately replaced with fresh prepared medium which contains 10% CCK8 reagent (100 μL/well). For the suspension cells, CCK8 was directly added to 10% of the final concentration. The cells were continually incubated for 1˜4 h. When the color of control wells turned to dark yellow, the absorption value was measured at OD450 nm. The cell growth rate was calculated according to the following formula: cell growth rate (%)=100*(T−T0)/(C−T0), T=optical density of drug treatment cell well—optical density of blank control well; T0=optical density of cell well before drug treatment—optical density of blank control well; C=optical density of cell well of solvent control group—optical density of blank control well. […] The experiment was independently repeated 1˜3 times, and subject to biological statistical analysis.
(§5) Growth inhibition assay was conducted in the cell lines shown Table 14 with the different oncogene mutations. Each compound started at 1000 nM as an initial concentration and was diluted by 2 times with serial dilution to 0.03 nM.

Assay [2] has as its system A375 (EGFR wt, BRAF V600E). The assay can be described thus: Growth inhibition GI50 in vitro (CCK8/MTT, 72 h). It counts as cell-based. Conditions: Homo sapiens, A-375.
Description: EGFR wild type cell lines: human epidermal cancer cell line A431 (EGFR WT, amplification and high expression, from Shanghai Cell Bank of Chinese Academy of Sciences and ATCC), NSCLC cell lines NCI-H460 (EGFR WT, Kras G61H and PI3KCA E545K mutants, ATCC) and NCI-H1299 (EGFR WT, ATCC), melanoma cell line A375 (EGFR WT and BRAF V600E mutant, from Shanghai Cell Bank of Chinese Academy of Sciences, ATCC), human lung cancer cell line NCI-H292 (EGFR WT, from human lung mucoepidermoid carcinoma/lymphatic metastasis, purchased from Shanghai Cell Bank of Chinese Academy of Sciences) were cultured with 1×RPMI1640 complete medium which was supplement with 10% FBS. NSCLC cell line A549 (EGFR WT and Kras G12S mutant, from Shanghai Cell Bank of Chinese Academy of Sciences) was cultured with 1×Ham'S F12K complete medium which was supplement with 10% FBS, 1% double-antibiotics and 2 mM glutamine.
as §1, §2, §3, §4, §5

Assay [3] relates to H1993 (Met amp). As to the kind of experiment: Growth inhibition GI50 in vitro (CCK8/MTT, 72 h). It counts as cell-based. Conditions: Homo sapiens, NCI-H1993, H1993, EGFR wt. How it is done:
(§6) Human gastric cancer cell line MKN-45 (ATCC) and NSCLC cell line NCI-H1993 (ATCC) were cultured with 1×RPMI1640 complete medium which was supplement with 10% FBS, respectively.
as §1, §2, §3, §4, §5

Assay [4] has as its system MKN-45 (Met amp). The assay can be described thus: Growth inhibition GI50 in vitro (CCK8/MTT, 72 h). In kind it is cell-based. Conditions: Homo sapiens, MKN-45, EGFR wt. How it is done: as §6, §1, §2, §3, §4, §5
In assay [5] the test system is H2228 (EML4-ALK). The assay can be described thus: Growth inhibition GI50 in vitro (CCK8/MTT, 72 h). In kind it is cell-based. Conditions: Homo sapiens, NCI-H2228, H2228, EGFR wt.
Assay [6] relates to K562 (BCR-ABL). The assay can be described thus: Growth inhibition GI50 in vitro (CCK8/MTT, 72 h). Conditions: Homo sapiens. In kind it is cell-based. How it is done: Human leukemia cell line K562 (expressing BCR-ABL fusion protein) (ATCC) was cultured with 1×RPMI1640 complete medium (supplement with 10% FBS).
as §1, §2, §3, §4, §5

Assay [7] deals with H1975 tumor cells. As to the kind of experiment: In vivo tumor growth inhibition, xenograft. Conditions: Mus musculus, NCI-H1975, po, 456 h; 25 mg/kg intragastric once daily, day 19; read-out: TGI (%) H1975. More on the design: species or system Bab/c nude mice. The source says:
(§7) Tumor xenograft models of immunodeficient mice are an effective tool to test the antitumor activity of the compound in vivo. Generally, the effectiveness of human tumor cell xenograft is positively correlated with the clinical treatment of human tumor. Bab/c immunodeficient mouse is one of the most commonly used xenograft animals with human tumor cells. In order to test whether the present compounds can inhibit the in vivo growth of the tumor cells expressing EGFR mutantion or HER2/ErbB2 overexpression, H1975, PC-9 and NCI-N87 cell lines were used in the experiments. When H1975, PC-9 and NCI-N87 cells were in growth logarithmic phase, they were digested with pancreatin. An appropriate amount of 1×RPMI1640 culture medium (serum-free) was added to stop digestion. The cells were collected to a 50 ml centrifuge tube (Corning), and centrifuged at 1700 rm for 3 min. The supernatant was discard, then the cells were suspended with 1×RPMI1640 culture medium and count the number. […] cells/mL was prepared and then placed on ice. 5˜10×10^6 (0.2 ml) cells were inoculated subcutaneously on the right side of the back of 6˜8 week old female Bab/c nude mice (about 20 g in weight). When the tumor average volume growed to 100˜200 mm^3, the mice were randomly divide into groups (3-6 mice per group), and marked by ear pierced tags and weighted. The test compounds and the reference compound (with a purity over 99% and individual impurity not higher than 0.2%) were formulated to emulsion suspension with CM (30% polyethylene glycol 400, 0.5% Tween-80 and 2.5% propylene glycol) respectively. Intragastric administration was continued once daily at a dosage of 25 mg/kg (0.1 ml/10 g mouse). The tumor was measured 3 times per week. When the average volume of the tumor in CM control group was up to 1500 mm^3 or after administration for 30 days, the experiment was ended.
(§8) The volume of tumor (V) was calculated as V=½*a*b^2 (a represents length of tumors, b represents width of tumors). Tumor growth inhibition (TGI) was calculated as: TGI (%)=100−(VT−VT0)/(VC−VC0)*100%; where VT0 and VT are the tumor volumes of the beginning and finish days of dosed groups; and VC0 and VC are the tumor volumes of the beginning and finish days for the control group, respectively.

Assay [8] relates to PC-9 tumor cells. As to the kind of experiment: In vivo tumor growth inhibition, xenograft. More on the design: species or system Bab/c nude mice. Conditions: Mus musculus, po, 456 h; 25 mg/kg intragastric once daily, day 19; read-out: TGI (%) PC-9.
Description: as §7, §8

Assay [9] concerns HER2/ErbB2 amplified cell line N87. The assay can be described thus: In vivo tumor growth inhibition, xenograft. More on the design: species or system Bab/c nude mice. Conditions: Mus musculus, po, 456 h, 25 mg/kg intragastric once daily, day 19, read-out: TGI (%).
Description: as §7, §8

Where [10] appears, read: HCT116, EGFR wt, Kras G13D, read-out: GI50.
The mark [11] stands for this setting: A375, EGFR wt, BRAF V600E, read-out: GI50.

Read-outs that look alike come from different tables or passages of the source. Bounds are passed on as bounds.

In the case of `C=CC(=O)Nc1cc(Nc2nccc(-c3cn(C)c4ccccc34)n2)c(OC)cc1N(C)CCN(C)C` [AZD9291, reference compound], the GI50 in assay [1] is above 1000 nM; in [2] it was above 1000 nM; in [3], above 1000 nM; in assay [4] it was above 1000 nM; in [5] it was above 500 nM; in assay [6] it was above 1000 nM. Besides, the inhibition in vivo at 25 mg/kg in assay [7] turned out to be 98.4%; in [8], 97.2%.
For the compound `C=CC(=O)Nc1cc(Nc2nccc(Nc3cccc(Cl)c3)n2)c(OC)cc1N(C)CCN(C)C` [Compound 2, N-(5-(4-(3-chloro-phenylamino)-pyrimidin-2-ylamino)-2-(2-(dimethylamino-ethyl)-methyl-amino)-4-methoxyl-phenyl)-acrylamide], the GI50 was above 1000 nM in assay [1] (setting [10]); above 1000 nM in [2] (setting [11]); above 1000 nM in assay [3]; above 1000 nM in [4]; above 500 nM in [5]; above 1000 nM in [6].
As to `C=CC(=O)Nc1cc(Nc2nccc(Nc3ccc(OCc4ccccn4)c(Cl)c3)n2)c(OC)cc1N(C)CCN(C)C` [Compound 18, N-(5-(4-(3-chloro-4-(pyridin-2-methoxyl)phenylamino)pyrimidin-2-ylamino)-2-((2-(dimethylamino)ethyl)(methyl)amino)-4-methoxyl-phenyl)-acrylamide], the GI50 was above 1000 nM in assay [1] (setting [10]); above 1000 nM in assay [2] (setting [11]); above 1000 nM in assay [3]; above 1000 nM in [4]; above 500 nM in [5]; above 1000 nM in assay [6]. Besides, the inhibition in vivo at 25 mg/kg in assay [7] was 96.7%; in assay [8], 98.3%.
Consider `C=CC(=O)Nc1cc(Nc2ncc(Cl)c(Nc3ccc(OCc4ccccn4)c(Cl)c3)n2)c(OC)cc1N(C)CCN(C)C` [Compound 19, N-(5-(5-chloro-4-(3-chloro-4-(pyridin-2-methoxyl)phenylamino)-pyrimidin-2-ylamino)-2-((2-(dimethylamino)ethyl)(methyl)amino)-4-methoxyl-phenyl)-acrylamide], for which the GI50 in [1] (setting [10]) was above 1000 nM; in assay [2] (setting [11]), above 1000 nM; in assay [3], above 1000 nM; in [4], 500 nM; in [5] it was above 500 nM; in assay [6] it was above 1000 nM.
For `C=CC(=O)Nc1cc(Nc2nccc(-n3cnc4ccccc43)n2)c(OC)cc1N(C)CCN(C)C` [Compound 106], the GI50 is above 1000 nM in [1] (setting [10]); above 1000 nM in assay [2] (setting [11]); above 1000 nM in assay [3]; above 1000 nM in [4]; above 500 nM in assay [5]; above 1000 nM in [6].
`C=CC(=O)Nc1cc(Nc2ncnc(Nc3cccc(F)c3)n2)c(OC)cc1N(C)CCN(C)C` [Compound 114, N-(5-(4-(3-fluoro-phenylamino)-[1,3,5]triazin-2-ylamino)-2-((2-dimethylamino-ethyl)-methyl-amino)-4-methoxyl-phenyl)-acrylamide]: the GI50 is above 1000 nM in assay [1] (setting [10]); 465 nM in assay [2] (setting [11]); above 1000 nM in [3]; 465 nM in assay [4]; above 500 nM in assay [5]; above 1000 nM in assay [6].
With `C=CC(=O)Nc1cc(Nc2ncnc(Nc3cccc(Br)c3)n2)c(OC)cc1N1CCC(N2CCCC2)CC1` [Compound 118], the GI50 was above 1000 nM in assay [1] (setting [10]); 465 nM in assay [2] (setting [11]); 465 nM in assay [4]; above 500 nM in [5]; above 1000 nM in assay [6].
On to `C=CC(=O)Nc1cc(Nc2cc(Nc3cc(OC)c(Cl)cc3Cl)ncn2)c(OC)cc1N(C)CCN(C)C` [Compound 136, N-(5-(6-(2,4-dichloro-5-methoxyl-phenylamino)-pyrimidin-4-ylamino)-2-((2-dimethylamino-ethyl)-methyl-amino)-4-methoxyl-phenyl)-acrylamide], for which the inhibition in vivo at 25 mg/kg in [9] turned out to be 96.7%.
Consider `C=CC(=O)Nc1cc(Nc2cc(Nc3ccc(F)c(Cl)c3)ncn2)c(OC)cc1N(C)CCN(C)C` [Compound 140, N-(5-(6-(3-chloro-4-fluoro-phenylamino)-pyrimidin-4-ylamino)-2-((2-dimethylamino-ethyl)-methyl-amino)-4-methoxyl-phenyl)-acrylamide], for which the GI50 in [1] (setting [10]) was above 1000 nM; in assay [2] (setting [11]), above 1000 nM; in assay [3], above 1000 nM; in assay [4], above 1000 nM; in assay [5], above 500 nM; in assay [6], above 1000 nM. Further, the inhibition in vivo at 25 mg/kg in assay [7] came to 98.4%; in [8], 97.9%.
Regarding `C=CC(=O)Nc1cc(Nc2cc(Nc3ccc(F)c(Cl)c3)ncn2)c(OC)cc1N1CCN(C2CCN(C)CC2)CC1` [Compound 147, N-(5-(6-(3-chloro-4-fluoro-phenylamino)-pyrimidin-4-ylamino)-4-methoxyl-2-(4-(1-methylpiperidin-4-yl)-piperazin-1-yl)-phenyl)-acrylamide], the GI50 in assay [1] (setting [10]) is above 1000 nM; in assay [2] (setting [11]), above 1000 nM; in assay [3], above 1000 nM; in assay [4], above 1000 nM; in [5] it was above 500 nM; in [6], above 1000 nM.
As for `C=CC(=O)Nc1cc(Nc2nccc(-n3ccc4c(OCCOC)cccc43)n2)c(OC)cc1N(C)CCN(C)C` [Compound 205, N-(5-(4-(4-(2-methoxyl-ethoxyl)-1H-indol-1-yl)-pyrimidin-2-ylamino)-2-(2-(dimethylamino-ethyl)-methyl-amino)-4-methoxyl-phenyl)-acrylamide], the values for the inhibition in vivo at 25 mg/kg in assay [7] and in assay [8] were 99.5% and 96.5%, respectively.
